The values below come from ChEMBL document CHEMBL5223185, “Squaramide Tethered Clindamycin, Chloroquine, and Mortiamide Hybrids: Design, Synthesis, and Antimalarial Activity” (ACS Med Chem Lett, 2023).

A short description of data set [1]: Fold resistance,ratio of IC50 for antiplasmodial activity against chloroquine, mefloquine and pyrimethamine resistant plasmodium falciparum Dd2 to IC50 for antiplasmodial activity against plasmodium falciparum 3D7. The class given is functional.
For data set [2], the system named is Plasmodium falciparum. As to the kind of experiment: Antiplasmodial activity against sorbitol-synchronized post ring stage chloroquine, mefloquine and pyrimethamine resistant plasmodium falciparum Dd2 assessed as inhibition of parasite growth incubated for 72 to 96 hrs by parasite susceptibility based microplate reader assay. It is filed as functional, organism-based.

A short description of data set [3]: Hemolytic activity in human RBC assessed as hemolysis at 0.39 to 12.8 uM incubated for 72 hrs by microplate reader assay. It is filed as toxicity, cell-based. Particulars: erythrocyte, dose 0.39-12.8 µM.
The test system of data set [4] is Plasmodium falciparum. In words: Antiplasmodial activity against sorbitol-synchronized post ring stage plasmodium falciparum 3D7 assessed as inhibition of parasite growth incubated for 72 to 96 hrs by parasite susceptibility based microplate reader assay. It is filed as functional, organism-based.

pIC50: −log10 of the molar value. Square brackets hold non-standard residues; d marks the D form. Peptide text beside a SMILES is read from it.

`CCN(CCCC(C)Nc1ccnc2cc(Cl)ccc12)CCNc1c(NCCCC[C@H](NC(C)=O)C(=O)OC)c(=O)c1=O` (some centres not stated): the Ratio in data set [1] stood at 3. For the same compound, the pIC50 (in general, the negative decadic logarithm of the IC50, by convention in mol/L) with Plasmodium falciparum [2] was 6.17; with Plasmodium falciparum [4] it was 6.65. In data set [3], the Activity result is recorded as “Non-Toxic”.

Take `CCN(CCN)CCCC(C)Nc1ccnc2cc(Cl)ccc12` (configuration not stated): in data set [1], the Ratio was 17.1. Also, the results for the negative-log IC50 (pIC50) in the data set with Plasmodium falciparum [2] and in the data set with Plasmodium falciparum [4] were 6.55 and 7.78, respectively. For the same compound, the Activity entry in data set [3] is reported as “Non-Toxic”.

Turning to `CCC[C@@H]1C[C@@H](C(=O)N[C@@H]([C@H]2O[C@H](SC)[C@H](O)[C@@H](O)[C@H]2O)[C@@H](C)N=[N+]=[N-])N(C)C1`, the Ratio in data set [1] turned out to be 1. Besides, the values for the negative logarithm of the IC50 (pIC50) in the data set with Plasmodium falciparum [2] and in the data set with Plasmodium falciparum [4] were 7.54 and 7.53, respectively. Moreover, the Activity entry in data set [3] is given as “Non-Toxic”.

With `CC[C@@H](C)[C@H]1NC(=O)[C@@H](C)NC(=O)[C@H](Cc2ccccc2)NC(=O)[C@@H](CC(C)C)NC(=O)[C@@H](C(C)C)NC(=O)[C@H](Cc2ccccc2)NC(=O)[C@@H]([C@H](C)CC)NC1=O` (cyclo(F[dA][dI][dI]F[dV][dL])), the Ratio in data set [1] turned out to be 0.7. The results for the pIC50 with Plasmodium falciparum [2] and with Plasmodium falciparum [4] were 6.03 and 5.88, respectively.

With `CCOc1c(NCCN(CC)CCCC(C)Nc2ccnc3cc(Cl)ccc23)c(=O)c1=O` (configuration not stated), the Ratio in data set [1] came to 16.6. The pIC50 with Plasmodium falciparum [2] was 5.98; in the data set with Plasmodium falciparum [4], 7.20. The Activity result in data set [3] is recorded as “Non-Toxic”.

On to `CCC[C@@H]1CC(C(=O)N[C@@H](C2O[C@H](SC)[C@H](O)[C@@H](O)[C@H]2O)[C@@H](C)Nc2c(NCCN(CC)CCCC(C)Nc3ccnc4cc(Cl)ccc34)c(=O)c2=O)N(C)C1` (some centres not stated), for which the Ratio in data set [1] came to 7.8. Further, the pIC50 in the data set with Plasmodium falciparum [2] was 5.99; with Plasmodium falciparum [4] it was 6.89. For the same compound, the Activity result in data set [3] is reported as “Non-Toxic”.

In the case of `CCC[C@@H]1C[C@@H](C(=O)N[C@@H]([C@H]2O[C@H](SC)[C@H](O)[C@@H](O)[C@H]2O)[C@H](C)Cl)N(C)C1` [CLINDAMYCIN], the negative-log IC50 (pIC50) with Plasmodium falciparum [4] was 8.06.

With `CCN(CCCC(C)Nc1ccnc2cc(Cl)ccc12)CCN=[N+]=[N-]` (configuration not stated), the Ratio in data set [1] was 6.5. The negative-log IC50 (pIC50) with Plasmodium falciparum [2] is 7.74; with Plasmodium falciparum [4], 8.55. Further, the Activity result in data set [3] is recorded as “Non-Toxic”.

On to `CCN(CCCC(C)Nc1ccnc2cc(Cl)ccc12)CCNc1c(NCCN(CC)CCCC(C)Nc2ccnc3cc(Cl)ccc23)c(=O)c1=O` (configuration not stated), for which the Ratio in data set [1] amounted to 2.6. For the same compound, the results for the pIC50 in the data set with Plasmodium falciparum [2] and with Plasmodium falciparum [4] were 7.09 and 7.50, respectively. Moreover, in data set [3], the Activity result was “Non-Toxic”.
